Measurements taken from BigSolDB 2.1.

Cc1ccc(S(=O)[O-])cc1.[Na+]
solubility (mole fraction)
Conditions | in DMF | in acetone | in acetonitrile | in ethanol | in isopropanol | in methanol | in n-butanol | in n-propanol | in water
278.15 K | 0.00114 | 0.00039 | 5.8e-05 | 0.0031 | 0.00083 | 0.0234 | 0.00032 | 0.00301 | 0.0172
283.15 K | 0.00169 | 0.00047 | 7.7e-05 | 0.00328 | 0.00086 | 0.0313 | 0.00035 | 0.00311 | 0.0201
288.15 K | 0.0025 | 0.00057 | 9.9e-05 | 0.00337 | 0.00089 | 0.04 | 0.00039 | 0.00321 | 0.0234
293.15 K | 0.00365 | 0.00067 | 0.00013 | 0.00345 | 0.00093 | 0.0511 | 0.00043 | 0.00331 | 0.0272
298.15 K | 0.00525 | 0.0008 | 0.00016 | 0.00354 | 0.00097 | 0.0665 | 0.00047 | 0.00347 | 0.0314
303.15 K | 0.00747 | 0.00094 | 0.00021 | 0.00363 | 0.001 | 0.0851 | 0.00052 | 0.00364 | 0.0358
308.15 K | 0.0105 | 0.00111 | 0.00027 | 0.00373 | 0.00105 | 0.106 | 0.00057 | 0.00381 | 0.0404
313.15 K | 0.0146 | 0.0013 | 0.00033 | 0.00383 | 0.00109 | 0.13 | 0.00063 | 0.00401 | 0.0453
318.15 K | 0.02 | 0.00151 | 0.00041 | 0.00393 | 0.00113 | 0.156 | 0.00069 | 0.00421 | 0.0514
